Laboratory results taken from patent publication US12636368B2, “Ionizable lipids for nucleic acid delivery” (Global Life Sciences Solutions Canada ULC, priority 2019, dated 2026).

How the values were obtained:
[1] = system: isolated primary human T cells; assay: CD19 CAR expression in primary human T cells by mRNA-LNPs; format: cell-based; conditions: FIG. 11; CT10, N/P 8, 48 h
Experimental: MRNA containing IL with CT10 composition at N/P 8 was assayed after in vitro exposure. The CAR vector pcDNA3.1 anti-CD19-h(BB Lambda)-EGFP-2nd-CAR (T7 Mut) 7661 bp was purchased from Creative BioLabs, NY, USA.
T cells were isolated from whole blood using a negative isolation procedure and T cell activation, and expansion was carried out by triple activation in ImmunoCult™ Human T Cell Expansion Media as described supra.

C56BL/6 mice = assay: hEPO expression in mice after i.v. EPO mRNA LNPs; format: in vivo; conditions: for hEPO protein level compared with MC3: FIG. 9, 5-moU EPO mRNA, LM02, N/P 6, 0.5 mg/Kg, 6 h; for protein expression in vivo compared with MC3: summary, Table 7 and Figures
Experimental: C56BL/6 mice were administered i.v doses of 0.5, 1 or 3 mg/Kg of recombinant human EPO-encoded mRNA LNPs containing ionizable lipids MC3, PNI 76, PNI 121 and PNI 127 using the LM02 composition at N/P 6; hEPO protein was measured using Quantikine® IVD® ELISA Human Erythropoietin Immunoassay protocol. Results for the 0.5 mg/Kg dosage are shown in the scatter plot of FIG. 7. Results for the 1 and 3 mg/Kg doses are shown in FIG. 8 as scatter plots of hEPO expression levels at 6 h (left) and 24 h (right).
In another study, 5-moU EPO mRNA encapsulated in LM02 LNP at an N/P ratio of 6 and a dose of 0.5 mg/Kg comprising a variety of […] ionizable lipids (PNI 336, PNI 534, PNI 535, PNI 342, PNI 321, PNI 532, PNI 538, PNI 541, PNI 325, PNI 328, PNI 329, PNI 539, PNI 540, PNI 127); along with MC3 as a control, were administered. hEPO protein was measured using ProteinSimple® Ella platform, and the rhEPO microfluidic cartridges provided by the manufacturer.
Blood from mice treated with hEPO mRNA LNP was analyzed using an automated ELISA platform “ELLA”, using Simplex™ antibody panel cartridges. Human-specific EPO and mouse-specific IL-5, IL-6, TNF-α, and IFN-γ were measured (reagents from Bio-techne). Briefly, 50 μL of sample reagent (diluted biological sample, quality control, or calibration point sample) were aliquoted into each sample inlet, and 1 mL of wash buffer was added into corresponding inlets on the cartridge. All immunoassay operations (including prime system, flow samples and split them into channels, sample incubation, wash, rehydrate and flow secondary antibody, wash, rehydrate and flow streptavidin dye conjugate, incubate, wash, scan) were processed automatically. Raw signal levels (relative fluorescence units, RFUs), mean signal values, standard deviation, and coefficient of variance (CV) for each glass nanoReactor (GNR) value are provided. RFU values are automatically backfit by the ELLA to produce an analyte concentration per analyte/sample using the manufacturer given calibration methodology.
Reagents were acquired from Quantikine, Minneapolis, MN. The assay was performed as directed on the Quantikine® IVD® ELISA Human Erythropoietin Immunoassay protocol REF DEP00 Package Insert. Briefly; Sera samples of 6 h, and/or 24 h post intravenous administration of 0.5, 1 or 3 mg/kg dose of EPO-encoded mRNA were analyzed for EPO expression analysis, and expressed as mIU/mL. To an EPO antibody pre-coated 96-well microplate, provided by the manufacturer, standards, appropriately diluted sera, and the Horseradish peroxidase (HRP)-conjugated rabbit anti-EPO polyclonal antibody and TMB (Tetramethylbenzidine) as the substrate were added and incubated for 20 minutes. Stop solution (Sulfuric Acid) was added to the wells and the plate was read at 450 nm and the concentration of EPO was calculated. The amount of colour generated is directly proportional to the amount of the conjugate bound to EPO antibody, which in turn is directly proportional to the amount of EPO in the specimen or standard. A standard curve was generated by plotting absorbance versus concentration of provided standards. Quantikine® Human Serum Controls (CEP 01, CEP 03) were used for internal controls.

primary human T cells = assay: EPO ELISA after EPO mRNA LNP treatment of primary human T cells; format: cell-based
Experimental: Reagents were acquired from Quantikine, Minneapolis, MN. The assay was performed as directed on the Quantikine® IVD® ELISA Human Erythropoietin Immunoassay protocol. REF DEP00 Package Insert. Briefly; primary human T cells were isolated from fresh whole blood using a negative selection protocol and activated using a triple activator. Seven days post-activation, T cells were dosed with mRNA LNPs encoding EPO at 2 pg mRNA per 500,000 cells and N/P 10. Quantikine® Human Serum Controls were used. After 48 hours of treatment with mRNA LNPs the T cells were harvested and lysed for cytosolic EPO and media supernatant was sampled for secreted EPO. Table 5 includes the data of FIG. 6 as well as the fold increase of EPO for PNI 76 and 121 versus MC3.

human T cells = assay: eGFP ELISA after eGFP mRNA LNP treatment of human T cells; format: cell-based; conditions: FIG. 3; CT10, N/P 10, 10 days post-activation, 48 hours
Experimental: Reagents were acquired from Abcam, Cambridge, UK unless otherwise stated. […] The assay was performed as directed by the eGFP SimpleStep ELISA® Kit protocol. Briefly; frozen human T cells, previously isolated from fresh human whole blood using a negative selection protocol, were thawed and activated using a triple activator. […] After 48 hours of treatment with mRNA LNPs the T cells were harvested and lysed for total eGFP content.
In order to expose the isolated and activated T cells (Day 0) to the formulated mRNA, 2 ug of CleanCap™ eGFP (Trilink Biotechnologies, San Diego, CA) mRNA-containing LNP was added to 500,000 T cells in 1 mL of complete T cell media, with 1 ug/mL of Recombinant Human ApoE4 (“ApoE”) (Peprotech Inc., Montreal, Canada).
Frozen human T cells, previously isolated from fresh human whole blood using a negative selection protocol, were thawed and activated using a triple activator. At 10 days post-activation, T cells were dosed with CT10 mRNA LNPs LNP comprising DLin-MC3-DMA, PNI 76, PNI 119, PNI 120, PNI 121, and PNI 122 encoding eGFP at 2 pg mRNA per 500,000 cells and N/P 10. Protein expression was measured after 48 hours by eGFP ELISA.

Structure (SMILES) | CD19 CAR expression compared with PBS [1] | hEPO protein level compared with MC3 (C56BL/6 mice) | protein expression in vivo compared with MC3 (C56BL/6 mice) | EPO expression compared with MC3 (primary human T cells; FIG. 6, N/P 10, 48 hours) | EPO Fold Change Relative to MC3 (primary human T cells; Table 5) | EPO concentration (mIU/mL) (primary human T cells; Table 5, EPO mRNA LNPs, 2 pg mRNA per 500,000 cells, N/P 10, 48 hours) | eGFP expression by eGFP ELISA compared with MC3 (human T cells)
CCCCC/C=C\C/C=C\CCCCCCCC(=O)O[C@@H]1[C@@H](OC(=O)CCCCCCC/C=C\C/C=C\CCCCC)CO[C@@H]1COC(=O)C1(C)CCN(C)C1 (mixture of isomers) [PNI 329] | greater than PBS | compare well to MC3 | equivalent to MC3 |  |  |  | 
CCCCC/C=C\C/C=C\CCCCCCCC(=O)O[C@@H]1[C@@H](OC(=O)CCCCCCC/C=C\C/C=C\CCCCC)CO[C@@H]1COC(=O)CCCN1CCCC1 (racemic) [PNI 539] |  | compare well to MC3 |  |  |  |  | 
CCCCC/C=C\C/C=C\CCCCCCCC(=O)O[C@@H]1[C@@H](OC(=O)CCCCCCC/C=C\C/C=C\CCCCC)CO[C@@H]1COC(=O)CCCN(C)C (racemic) [PNI 121] |  |  | equivalent to MC3 | higher than those containing MC3 | 1.86 | 1009.0 | greater than that of MC3
CCCCC/C=C\C/C=C\CCCCCCCC(=O)O[C@@H]1[C@@H](OC(=O)CCCCCCC/C=C\C/C=C\CCCCC)CO[C@@H]1COC(=O)C1CCN(C)C1 (mixture of isomers) [PNI 328] | greater than PBS | compare well to MC3 | equivalent to MC3 |  |  |  | 
